Data: patent US9896441B2 (Lycera Corporation, priority 2014, dated 2018)

Assays:
[1] = target: T1, Gal4-RORγ-LBD (Homo sapiens, UniProt P51449); assay: Gal4-RORγ Luciferase Reporter Assay in HEK-293T Cells; format: cell-based; conditions: HEK-293 cells, luciferase reporter, in presence of ursolic acid; for Gal4-RORγ Assay Max Response: maximum response
T1 construct: expressed in transfected cells
T1 sequence (P51449 269-508 limits assumed): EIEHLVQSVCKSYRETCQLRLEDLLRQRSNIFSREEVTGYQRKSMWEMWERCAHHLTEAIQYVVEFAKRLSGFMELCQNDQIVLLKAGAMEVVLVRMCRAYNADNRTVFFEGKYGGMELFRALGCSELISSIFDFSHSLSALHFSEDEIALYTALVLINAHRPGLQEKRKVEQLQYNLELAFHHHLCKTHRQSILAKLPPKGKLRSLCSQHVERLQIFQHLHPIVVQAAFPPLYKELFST
In short: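 Max Response was taken as the upper plateau of a 4-parameter logistic fit of luciferase signal, normalized to 100 for wells without ursolic acid or compound. Transiently Gal4-RORγ-LBD/Gal4-luc transfected HEK-293 cells carrying […] ursolic acid were incubated with test compounds (0.2% DMSO) overnight at 37 °C and read with One-Glo.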

[2] = target: T2, RORγ-LBD (Homo sapiens, UniProt P51449); assay: RORγ-Ligand Binding Domain (LBD) TR-FRET Assay; format: biochemical; conditions: RORγ-LBD TR-FRET assay; for TR-FRET Assay Max Response: maximum response;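 on TR-FRET Assay Max Response: 665/615 nm signal ratio set to 100 without ursolic acid or test compound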
T2 construct: made in house; host or cells: SF9 cells (baculovirus); used as diluted lysate
T2 sequence (P51449 269-508 limits assumed): T1 sequence (P51449 269-508 limits assumed)
In short: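 Lysate from SF9 cells expressing His-RORγ-LBD is diluted to about 3 nM final in 50 mM Tris pH 7.0 assay buffer. A biotin-tagged SRC1 LXXLL peptide goes in at 200 nM final, plus ursolic acid at 2 μM final. Test compounds carry 1% DMSO final; signal read by TR-FRET.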

COc1cc(S(=O)(=O)C2CC(CCC(=O)O)Oc3ccc(OCc4c(F)cccc4Cl)cc32)ccc1F (centres unmarked) [Example 179, 3-(6-((2-Chloro-6-fluorobenzyl)oxy)-4-((4-fluoro-3-methoxyphenyl)sulfonyl)chroman-2-yl)propanoic acid]
EC50 [1]: 500 to 5000 nM
Gal4-RORγ Assay Max Response [1]: *** (a value in the range of greater than 150 to 200)
EC50 [2]: < 500 nM
TR-FRET Assay Max Response [2]: ** (a value in the range of greater than 90 to 150)

C/C(=C\c1ccc2c(c1)C(S(=O)(=O)c1cccc(C(F)(F)F)c1)CC(CN)O2)c1c(F)cccc1Cl (centres unmarked) [Example 180, (E)-(6-(2-(2-Chloro-6-fluorophenyl)prop-1-en-1-yl)-4-((3-(trifluoromethyl)phenyl)sulfonyl)chroman-2-yl)methanamine]
EC50 [1]: 500 to 5000 nM
Gal4-RORγ Assay Max Response [1]: * (a value in the range of 30 to 90)
EC50 [2]: < 500 nM
TR-FRET Assay Max Response [2]: *** (a value in the range of greater than 150 to 200)

CC(=O)NCC1CC(S(=O)(=O)c2cccc(C(F)(F)F)c2)c2cc(/C=C(\C)c3c(F)cccc3Cl)ccc2O1 (centres unmarked) [Example 181, (E)-N-((6-(2-(2-Chloro-6-fluorophenyl)prop-1-en-1-yl)-4-((3-(trifluoromethyl)phenyl)sulfonyl)chroman-2-yl)methyl)acetamide]
EC50 [1]: < 500 nM
Gal4-RORγ Assay Max Response [1]: ** (a value in the range of greater than 90 to 150)
EC50 [2]: < 500 nM
TR-FRET Assay Max Response [2]: ** (a value in the range of greater than 90 to 150)

C/C(=C\c1ccc2c(c1)C(S(=O)(=O)c1cccc(C(F)(F)F)c1)CC(CNC(=O)C(C)(C)O)O2)c1c(F)cccc1Cl (centres unmarked) [Example 182, (E)-N-((6-(2-(2-Chloro-6-fluorophenyl)prop-1-en-1-yl)-4-((3-(trifluoromethyl)phenyl)sulfonyl)chroman-2-yl)methyl)-2-hydroxy-2-methylpropanamide]
EC50 [1]: < 500 nM
Gal4-RORγ Assay Max Response [1]: ** (a value in the range of greater than 90 to 150)
EC50 [2]: < 500 nM
TR-FRET Assay Max Response [2]: *** (a value in the range of greater than 150 to 200)

C/C(=C\c1ccc2c(c1)C(S(=O)(=O)c1cccc(C(F)(F)F)c1)CC(CNC(=O)C1CC1)O2)c1c(F)cccc1Cl (centres unmarked) [Example 183, (E)-N-((6-(2-(2-Chloro-6-fluorophenyl)prop-1-en-1-yl)-4-((3-(trifluoromethyl)phenyl)sulfonyl)chroman-2-yl)methyl)cyclopropanecarboxamide]
EC50 [1]: 500 to 5000 nM
Gal4-RORγ Assay Max Response [1]: ** (a value in the range of greater than 90 to 150)
EC50 [2]: < 500 nM
TR-FRET Assay Max Response [2]: *** (a value in the range of greater than 150 to 200)

C/C(=C\c1ccc2c(c1)C(S(=O)(=O)c1cccc(C(F)(F)F)c1)CC(CNS(C)(=O)=O)O2)c1c(F)cccc1Cl (centres unmarked) [Example 184, (E)-N-((6-(2-(2-Chloro-6-fluorophenyl)prop-1-en-1-yl)-4-((3-(trifluoromethyl)phenyl)sulfonyl)chroman-2-yl)methyl)methanesulfonamide]
EC50 [1]: < 500 nM
Gal4-RORγ Assay Max Response [1]: ** (a value in the range of greater than 90 to 150)
EC50 [2]: < 500 nM
TR-FRET Assay Max Response [2]: *** (a value in the range of greater than 150 to 200)

COC(=O)CCC1CC(S(=O)(=O)c2cccc(C(F)(F)F)c2)c2cc(OCc3c(F)cccc3Cl)ccc2O1 (centres unmarked) [Example 186B, methyl 3-(6-((2-chloro-6-fluorobenzyl)oxy)-4-((3-(trifluoromethyl)phenyl)sulfonyl)chroman-2-yl)propanoate]
EC50 [1]: < 500 nM
Gal4-RORγ Assay Max Response [1]: ** (a value in the range of greater than 90 to 150)
EC50 [2]: < 500 nM
TR-FRET Assay Max Response [2]: ** (a value in the range of greater than 90 to 150)

COc1cc(S(=O)(=O)C2CC(CC(C)(C)C(=O)O)Oc3ccc(OCc4c(F)cccc4Cl)cc32)ccc1F (centres unmarked) [Example 186C, 3-(6-((2-chloro-6-fluorobenzyl)oxy)-4-((4-fluoro-3-methoxyphenyl)sulfonyl)chroman-2-yl)-2,2-dimethylpropanoic acid]
EC50 [1]: > 10000 nM
Gal4-RORγ Assay Max Response [1]: ** (a value in the range of greater than 90 to 150)
EC50 [2]: < 500 nM
TR-FRET Assay Max Response [2]: *** (a value in the range of greater than 150 to 200)

CC(C)(CC1CC(S(=O)(=O)c2cccc(C(F)(F)F)c2)c2cc(OCc3c(F)cccc3Cl)ccc2O1)C(=O)O (centres unmarked) [Example 186E, 3-(6-((2-chloro-6-fluorobenzyl)oxy)-4-((3-(trifluoromethyl)phenyl)-sulfonyl)chroman-2-yl)-2,2-dimethylpropanoic acid]
EC50 [1]: 500 to 5000 nM
Gal4-RORγ Assay Max Response [1]: ** (a value in the range of greater than 90 to 150)
EC50 [2]: < 500 nM
TR-FRET Assay Max Response [2]: ** (a value in the range of greater than 90 to 150)

COC(=O)CCC1CC(S(=O)(=O)c2ccc(F)c(OC)c2)c2cc(/C=C(\C)c3c(F)cccc3Cl)ccc2O1 (centres unmarked) [Example 186F, methyl (E)-3-(6-(2-(2-chloro-6-fluorophenyl)prop-1-en-1-yl)-4-((4-fluoro-3-methoxyphenyl)sulfonyl)chroman-2-yl)propanoate]
EC50 [1]: < 500 nM
Gal4-RORγ Assay Max Response [1]: * (a value in the range of 30 to 90)
EC50 [2]: < 500 nM
TR-FRET Assay Max Response [2]: *** (a value in the range of greater than 150 to 200)

COc1cc(S(=O)(=O)C2CC(CCC(=O)O)Oc3ccc(/C=C(\C)c4c(F)cccc4Cl)cc32)ccc1F (centres unmarked) [Example 186G, (E)-3-(6-(2-(2-chloro-6-fluorophenyl)prop-1-en-1-yl)-4-((4-fluoro-3-methoxyphenyl)-sulfonyl)chroman-2-yl)propanoic acid]
EC50 [1]: 500 to 5000 nM
Gal4-RORγ Assay Max Response [1]: ** (a value in the range of greater than 90 to 150)
EC50 [2]: < 500 nM
TR-FRET Assay Max Response [2]: ** (a value in the range of greater than 90 to 150)

COC(=O)CCC1CC(S(=O)(=O)c2cccc(C(F)(F)F)c2)c2cc(/C=C(\C)c3c(F)cccc3Cl)ccc2O1 (centres unmarked) [Example 186H, methyl (E)-3-(6-(2-(2-chloro-6-fluorophenyl)prop-1-en-1-yl)-4-((3-(trifluoromethyl)phenyl)-sulfonyl)chroman-2-yl)propanoate]
EC50 [1]: < 500 nM
Gal4-RORγ Assay Max Response [1]: ** (a value in the range of greater than 90 to 150)
EC50 [2]: < 500 nM
TR-FRET Assay Max Response [2]: *** (a value in the range of greater than 150 to 200)

C/C(=C\c1ccc2c(c1)C(S(=O)(=O)c1cccc(C(F)(F)F)c1)CC(CCC(=O)O)O2)c1c(F)cccc1Cl (centres unmarked) [Example 186I, (E)-3-(6-(2-(2-chloro-6-fluorophenyl)prop-1-en-1-yl)-4-((3-(trifluoromethyl)phenyl)-sulfonyl)chroman-2-yl)propanoic acid]
EC50 [1]: < 500 nM
Gal4-RORγ Assay Max Response [1]: ** (a value in the range of greater than 90 to 150)
EC50 [2]: < 500 nM
TR-FRET Assay Max Response [2]: ** (a value in the range of greater than 90 to 150)

CCOC(=O)C(C)(C)CC1CC(S(=O)(=O)c2ccc(F)c(OC)c2)c2cc(/C=C(\C)c3c(F)cccc3Cl)ccc2O1 (centres unmarked) [Example 186J, ethyl (E)-3-(6-(2-(2-chloro-6-fluorophenyl)prop-1-en-1-yl)-4-44-fluoro-3-methoxyphenyl)-sulfonyl)chroman-2-yl)-2,2-dimethylpropanoate]
EC50 [1]: 500 to 5000 nM
Gal4-RORγ Assay Max Response [1]: ** (a value in the range of greater than 90 to 150)
EC50 [2]: < 500 nM
TR-FRET Assay Max Response [2]: ** (a value in the range of greater than 90 to 150)

CCOC(=O)C(C)(C)C[C@H]1C[C@H](S(=O)(=O)c2cccc(C(F)(F)F)c2)c2cc(/C=C(\C)c3c(F)cccc3Cl)ccc2O1 [Example 186M, ethyl 3-((2S,45)-6-((E)-2-(2-chloro-6-fluorophenyl)prop-1-en-1-yl)-4-((3-(trifluoromethyl)-phenyl)sulfonyl)chroman-2-yl)-2,2-dimethylpropanoate]
EC50 [1]: < 500 nM
Gal4-RORγ Assay Max Response [1]: * (a value in the range of 30 to 90)
EC50 [2]: < 500 nM
TR-FRET Assay Max Response [2]: *** (a value in the range of greater than 150 to 200)

C/C(=C\c1ccc2c(c1)C(S(=O)(=O)c1cccc(C(F)(F)F)c1)CC(CC(C)(C)C(=O)O)O2)c1c(F)cccc1Cl (centres unmarked) [Example 186N, (E)-3-(6-(2-(2-chloro-6-fluorophenyl)prop-1-en-1-yl)-4-((3-(trifluoromethyl)phenyl)-sulfonyl)chroman-2-yl)-2,2-dimethylpropanoic acid]
EC50 [1]: < 500 nM
Gal4-RORγ Assay Max Response [1]: ** (a value in the range of greater than 90 to 150)
EC50 [2]: < 500 nM
TR-FRET Assay Max Response [2]: *** (a value in the range of greater than 150 to 200)

C/C(=C\c1ccc2c(c1)N(S(=O)(=O)c1cccc(C(F)(F)F)c1)CCS2)c1c(F)cccc1Cl [Example 187, (E)-6-(2-(2-Chloro-6-fluorophenyl)prop-1-en-1-yl)-4-((3-(trifluoromethyl)phenyl)sulfonyl)-3,4-dihydro-2H-benzo[b][1,4]thiazine]
EC50 [1]: < 500 nM
Gal4-RORγ Assay Max Response [1]: ** (a value in the range of greater than 90 to 150)
EC50 [2]: < 500 nM
TR-FRET Assay Max Response [2]: **** (a value greater than 200)
